What is called IC50 is the concentration at which inhibition is half-maximal.

Structures are written as SMILES.

The results in this text go back to patent publication US8563553B2, “Compounds and compositions as protein kinase inhibitors” (Novartis AG, priority 2009, dated 2013).

The target of this assay is b-Raf(V600E) (Homo sapiens (Human), UniProt P15056, V600E). The experiment in a line: Raf/Mek Amplified Luminescence Proximity Homogeneous Assay (Alpha Screen). It is filed as biochemical. The conditions noted are these: b-Raf(V600E) approximately 4 pM; biotinylated Mek, kinase dead approximately 10 nM; ATP 10 μM; pre-incubation 60 minutes; reaction 3 hours at room temperature; read-out: mut-B-RAF IC50. Here is the method: Raf/Mek Amplified Luminescence Proximity Homogeneous Assay
b-Raf(V600E), sequence (P15056 whole entry V600E): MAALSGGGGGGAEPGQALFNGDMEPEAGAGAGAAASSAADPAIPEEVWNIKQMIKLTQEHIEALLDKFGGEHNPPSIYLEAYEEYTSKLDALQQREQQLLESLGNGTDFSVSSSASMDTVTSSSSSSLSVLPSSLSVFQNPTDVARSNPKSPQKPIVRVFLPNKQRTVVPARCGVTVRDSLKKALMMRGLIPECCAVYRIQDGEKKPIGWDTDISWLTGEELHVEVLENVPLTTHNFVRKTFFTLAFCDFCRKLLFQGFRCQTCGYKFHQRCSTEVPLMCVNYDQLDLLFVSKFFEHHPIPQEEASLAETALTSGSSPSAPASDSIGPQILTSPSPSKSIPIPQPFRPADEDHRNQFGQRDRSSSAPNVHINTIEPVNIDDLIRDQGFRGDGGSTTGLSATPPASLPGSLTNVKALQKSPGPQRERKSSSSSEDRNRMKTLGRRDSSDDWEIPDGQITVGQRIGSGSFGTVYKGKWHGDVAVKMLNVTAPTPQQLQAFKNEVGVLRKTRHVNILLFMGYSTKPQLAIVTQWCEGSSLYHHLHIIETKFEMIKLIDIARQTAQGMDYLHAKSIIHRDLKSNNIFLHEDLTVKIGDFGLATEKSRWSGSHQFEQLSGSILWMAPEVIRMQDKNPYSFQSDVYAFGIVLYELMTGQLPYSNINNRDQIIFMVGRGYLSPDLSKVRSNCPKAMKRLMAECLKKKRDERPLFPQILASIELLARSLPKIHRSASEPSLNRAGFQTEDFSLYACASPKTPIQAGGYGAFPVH
Assay buffer: 50 mM Tris, pH 7.5, 15 mM MgCl2, 0.01% Bovine Serum Albumin (BSA), 1 mM dithiothreitol (DTT) Stop buffer: 60 mM ethylenediaminetetraacetic acid (EDTA), 0.01% Tween® 20 Bead buffer: 50 mM Tris, pH 7.5, 0.01% Tween® 20 […]
biotinylated Mek, kinase dead
Alpha Screen detection kit (available from PerkinElmer™, #6760617R)
Anti phospho-MEK1/2 (available from Cell Signaling Technology, Inc. #9121) 384 well assay plates (White Greiner® plates, #781207) […]
biotinylated Mek, Kinase dead approximately 10 nM
Pre-incubation time with compounds 60 minutes at room temperature
Reaction time 1 or 3 hours at room temperature
Raf and biotinylated Mek, kinase dead, were combined at 2× final concentrations in assay buffer (50 mM Tris, pH 7.5, 15 mM MgCl2, 0.01% BSA and 1 mM DTT) and dispensed 10 μl per well in assay plates (Greiner white 384 well assay plates #781207) containing 0.5 μl of 40× of a raf kinase inhibitor test compound diluted in 100% DMSO. The plate was incubated for 60 minutes at room temperature.
The Raf kinase activity reaction was started by the addition of 10 μL per well of 2×ATP diluted in assay buffer. […] Phosphorylated product was measured using a rabbit anti-p-MEK (Cell Signaling, #9121) antibody and the Alpha Screen IgG (ProteinA) detection Kit (PerkinElmer #6760617R), by the addition of 30 μL to the well of a mixture of the antibody (1:2000 dilution) and detection beads (1:2000 dilution of both beads) in bead buffer (50 mM Tris, pH 7.5, 0.01% Tween20). The additions were carried out under dark conditions to protect the detection beads from light. A lid was placed on top of the plate and incubated for 1 hour at room temperature, then the luminescence was read on a PerkinElmer Envision instrument. The concentration of each compound for 50% inhibition (IC50) was calculated by non-linear regression using XL Fit data analysis software.
Take `O=S(=O)(Nc1cc(F)cc(-c2nc(C3CC3)[nH]c2-c2ccncn2)c1Cl)c1c(F)cccc1F` [Example 2I, N-(2-Chloro-3-(2-cyclopropyl-5-(pyrimidin-4-yl)-1H-imidazol-4-yl)-5-fluorophenyl)-2,6-difluorobenzenesulfonamide]: the IC50 was found to be 1 nM.
Regarding `CCCS(=O)(=O)Nc1cccc(-c2nc(C3CC3)[nH]c2-c2ccnc(NCCC#N)n2)c1F` [Example 4G, N-(3-(5-(2-(2-Cyanoethylamino)pyrimidin-4-yl)-2-cyclopropyl-1H-imidazol-4-yl)-2-fluorophenyl)propane-1-sulfonamide], the IC50 came to 0.13 nM.
Regarding `CC(C)(C)c1nc(-c2cccc(NS(C)(=O)=O)c2Cl)c(-c2ccnc(N)n2)[nH]1` [Example 1BL, N-(3-(5-(2-Aminopyrimidin-4-yl)-2-tert-butyl-1H-imidazol-4-yl)-2-chlorophenyl)methanesulfonamide], the IC50 was 55 nM.
As to `CNc1nccc(-c2[nH]c(C3CC3)nc2-c2cccc(NS(C)(=O)=O)c2F)n1` [Example 3A-2, N-(3-(2-cyclopropyl-5-(2-(methylamino)pyrimidin-4-yl)-1H-imidazol-4-yl)-2-fluorophenyl)methanesulfonamide], the IC50 is 578 nM.
Take `COC(=O)N[C@@H](C)CNc1nccc(-c2nc(C3(C)CC3)[nH]c2-c2cc(Cl)cc(NS(C)(=O)=O)c2F)n1` [Example 1AL]: the IC50 is 1 nM.
As for `COC(=O)N[C@@H](C)CNc1nccc(-c2[nH]c(C3CC3)nc2-c2cc(F)cc(NS(C)(=O)=O)c2F)n1` [Example 1V, Methyl (2S)-1-(4-(2-cyclopropyl-4-(2,5-difluoro-3-(methylsulfonamido)phenyl)-1H-imidazol-5-yl)pyrimidin-2-ylamino)propan-2-ylcarbamate], the IC50 was 0.2 nM.
`CC(C)(C)c1nc(-c2cc(F)cc(NS(C)(=O)=O)c2Cl)c(-c2ccnc(N)n2)[nH]1` [Example 1BJ, N-(3-(5-(2-Aminopyrimidin-4-yl)-2-tert-butyl-1H-imidazol-4-yl)-2-chloro-5-fluorophenyl)methanesulfonamide]: the IC50 is 5 nM.
Take `COC(=O)N[C@@H](C)CNc1nccc(-c2[nH]c(C3CC3)nc2-c2cc(Cl)cc(NS(=O)(=O)c3ccc(C(F)(F)F)cc3)c2F)n1` [Example 1BN, (S)-Methyl 1-(4-(4-(5-chloro-2-fluoro-3-(4-(trifluoromethyl)phenylsulfonamido)phenyl)-2-cyclopropyl-1H-imidazol-5-yl)pyrimidin-2-ylamino)propan-2-ylcarbamate]: the IC50 came out at 7 nM.
As for `COC(=O)N[C@@H](C)CNc1nccc(-c2[nH]c(C3CCC3)nc2-c2cc(F)cc(NS(C)(=O)=O)c2Cl)n1` [Example 1BU, (S)-Methyl 1-(4-(4-(2-chloro-5-fluoro-3-(methylsulfonamido)phenyl)-2-cyclobutyl-1H-imidazol-5-yl)pyrimidin-2-ylamino)propan-2-ylcarbamate], the half-maximal inhibitory concentration (IC50) was 1 nM.
Turning to `CNc1nccc(-c2[nH]c(C3CC3)nc2-c2cc(F)cc(NS(=O)(=O)c3c(F)cccc3F)c2Cl)n1` [Example 1BV, N-(2-Chloro-3-(2-cyclopropyl-5-(2-(methylamino)pyrimidin-4-yl)-1H-imidazol-4-yl)-5-fluorophenyl)-2,6-difluorobenzenesulfonamide], the IC50 worked out at 1 nM.
Under `COC(=O)N[C@@H](C)CNc1nccc(-c2[nH]c(C(C)(C)C)nc2-c2cc(Cl)cc(NS(=O)(=O)C(C)C)c2C)n1` [Example 1O, (S)-Methyl 1-(4-(2-tert-butyl-4-(5-chloro-2-methyl-3-(1-methylethylsulfonamido)phenyl)-1H-imidazol-5-yl)pyrimidin-2-ylamino)propan-2-ylcarbamate] stands 67.2 nM; under `Cc1cc(NS(C)(=O)=O)c(F)c(-c2nc(C3(C)CC3)[nH]c2-c2ccnc(NCCC#N)n2)c1` [Example 1BA, N-(3-(5-(2-(2-Cyanoethylamino)pyrimidin-4-yl)-2-(1-methylcyclopropyl)-1H-imidazol-4-yl)-2-fluoro-5-methylphenyl)methanesulfonamide], 0.37 nM; under `CCS(=O)(=O)Nc1cc(F)cc(-c2nc(C3CC3)[nH]c2-c2ccnc(NC[C@H](C)NC(=O)OC)n2)c1Cl` [Example 1AD, (S)-Methyl 1-(4-(4-(2-chloro-3-(ethylsulfonamido)-5-fluorophenyl)-2-cyclopropyl-1H-imidazol-5-yl)pyrimidin-2-ylamino)propan-2-ylcarbamate], 0.43 nM.
For `COC(=O)N[C@@H](C)CNc1nccc(-c2[nH]c(C3CC3)nc2-c2cc(Cl)cc(NS(C)(=O)=O)c2)n1` [Example 1S, (S)-Methyl 1-(4-(4-(3-chloro-5-(methylsulfonamido)phenyl)-2-cyclopropyl-1H-imidazol-5-yl)pyrimidin-2-ylamino)propan-2-ylcarbamate], the IC50 is 0.48 nM.
The result for `COC(=O)N[C@@H](C)CNc1nccc(-c2nc(C3CC3)[nH]c2-c2cc(Cl)cc(NS(=O)(=O)CCC(F)(F)F)c2F)n1` [Example 1AA, (S)-Methyl 1-(4-(5-(5-chloro-2-fluoro-3-(3,3,3-trifluoropropylsulfonamido)phenyl)-2-cyclopropyl-1H-imidazol-4-yl)pyrimidin-2-ylamino)propan-2-ylcarbamate] reads 0.6 nM; that for `CCCS(=O)(=O)Nc1cccc(-c2nc(C3CC3)[nH]c2-c2ccnc(NC[C@H](C)NC(=O)OC)n2)c1` [Example 4J, (S)-Methyl 1-(4-(2-cyclopropyl-4-(3-(propylsulfonamido)phenyl)-1H-imidazol-5-yl)pyrimidin-2-ylamino)propan-2-ylcarbamate], 1 nM.
On to `COC(=O)N[C@@H](C)CNc1nccc(-c2[nH]c(C3CC3)nc2-c2cc(C)cc(NS(C)(=O)=O)c2F)n1` [Example 1B, (S)-methyl 1-(4-(2-cyclopropyl-4-(2-fluoro-5-methyl-3-(methylsulfonamido)phenyl)-1H-imidazol-5-yl)pyrimidin-2-ylamino)propan-2-ylcarbamate], for which the IC50 came out at 0.2 nM.
For the compound `CCCS(=O)(=O)Nc1cc(Cl)cc(-c2[nH]c(C3CC3)nc2-c2ccnc(NC[C@H](C)NC(=O)OC)n2)c1F` [Example 1W, (S)-Methyl 1-(4-(5-(5-chloro-2-fluoro-3-(propylsulfonamido)phenyl)-2-cyclopropyl-1H-imidazol-4-yl)pyrimidin-2-ylamino)propan-2-ylcarbamate], the IC50 came to 0.89 nM.
Take `CC1(c2nc(-c3cc(Cl)cc(NS(C)(=O)=O)c3F)c(-c3ccnc(NCCC#N)n3)[nH]2)CC1` [Example 1BB, N-(5-Chloro-3-(5-(2-(2-cyanoethylamino)pyrimidin-4-yl)-2-(1-methylcyclopropyl)-1H-imidazol-4-yl)-2-fluorophenyl)methanesulfonamide]: the IC50 came out at 0.11 nM.
In the case of `COC(=O)N[C@@H](C)CNc1nccc(-c2[nH]c(C3CC3)nc2-c2c(F)ccc(NS(C)(=O)=O)c2Cl)n1` [Example 2F, Methyl (2S)-1-(4-(4-(2-chloro-6-fluoro-3-(methylsulfonamido)phenyl)-2-cyclopropyl-1H-imidazol-5-yl)pyrimidin-2-ylamino)propan-2-ylcarbamate], the IC50 is 5 nM.
Consider `CS(=O)(=O)Nc1cc(Cl)cc(-c2nc(C3CC3)[nH]c2-c2ccnc(N)n2)c1F` [Example 1BG, N-(3-(5-(2-Aminopyrimidin-4-yl)-2-cyclopropyl-1H-imidazol-4-yl)-5-chloro-2-fluorophenyl)methanesulfonamide], for which the IC50 was found to be 4 nM.
Regarding `COC(=O)N[C@@H](C)CNc1nccc(-c2nc(C(C)(C)C)[nH]c2-c2cc(NS(=O)(=O)C(C)C)cc(OC(F)F)c2)n1` [Example 1P, (S)-Methyl 1-(4-(2-tert-butyl-5-(3-(difluoromethoxy)-5-(1-methylethylsulfonamido)phenyl)-1H-imidazol-4-yl)pyrimidin-2-ylamino)propan-2-ylcarbamate], the IC50 worked out at 11.2 nM.
The result for `CCCS(=O)(=O)Nc1cc(F)cc(-c2nc(C3CC3)[nH]c2-c2ccncn2)c1Cl` [Example 2K, N-(2-Chloro-3-(2-cyclopropyl-5-(pyrimidin-4-yl)-1H-imidazol-4-yl)-5-fluorophenyl)propane-1-sulfonamide] reads 4 nM; that for `CC(C)CNc1nccc(-c2[nH]c(C3CC3)nc2-c2cc(F)cc(NS(C)(=O)=O)c2Cl)n1` [Example 1AR, N-(2-Chloro-3-(2-cyclopropyl-5-(2-(isobutylamino)pyrimidin-4-yl)-1H-imidazol-4-yl)-5-fluorophenyl)methanesulfonamide], 5 nM.
Consider `CC(C)(C)c1nc(-c2cc(Cl)cc(NS(=O)(=O)c3c(F)cccc3F)c2F)c(-c2ccnc(N)n2)[nH]1` [Example 1BE, N-(3-(5-(2-Aminopyrimidin-4-yl)-2-tert-butyl-1H-imidazol-4-yl)-5-chloro-2-fluorophenyl)-2,6-difluorobenzenesulfonamide], for which the IC50 came to 0.13 nM.
